Measurements as given in patent US11180510B2, “Xanthine derivatives and uses thereof as inhibitors of bromodomains of BET proteins” (Centre national de la recherche scientifique, priority 2017, dated 2021).
Like-named read-outs stand apart in the source and are kept apart here.

What was measured:
Brd2(BD1) = molecular target: T1, Brd2(BD1) (Homo sapiens, UniProt P25440); assay: HTRF BET selectivity profile, Brd2(BD1); format: binding
T1 construct: GST tagged bromodomain proteins were purchased from BPS Bioscience; purchased BPS Bioscience
T1 sequence (P25440 74-180 limits assumed): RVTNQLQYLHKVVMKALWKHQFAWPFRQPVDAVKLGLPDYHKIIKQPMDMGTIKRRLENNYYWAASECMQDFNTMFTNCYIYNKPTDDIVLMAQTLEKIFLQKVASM
Protocol: (§1) HTRF assays were performed in white 384 Well Small Volume™ HiBase Polystyrene Microplates (Greiner) with a total working volume of 20 μL. Compounds were dispensed, with 100 nL per well (0.5% final DMSO), from a concentration stock of 10 mM in 100% DMSO and with serial DMSO dilutions, using an Echo® 550 robot from the Access Labcyte platform (Labcyte) and based on the transfer of liquid by acoustic wave. Then, 19.5 μL of buffer is added, using a Multidrop Combi (Thermo Fisher Scientific). […] All HTRF reagents (donor and acceptor) were purchased from CisBio Bioassays and reconstituted according to the supplier protocols. The peptide was purchased from Genic Bio Synthetic. The BRD4(1) protein was produced and purified in the laboratory.
(§2) Percentage of inhibition was calculated using the following equation: % inhibition=[(compound signal)−(min signal)]/[(max signal)−(min signal)]*100, where ‘max signal’ is the signal ratio with the compound vehicle alone (DMSO) and ‘min signal’ the signal ratio without peptide.
(§3) Selectivity profiles of bromodomain inhibitors were performed as described in HTRF screen section. […] HTRF detection reagents (EPIgeneous™ Binding Domain kits) were purchased from Cisbio Bioassays and used according to supplier's protocol. GST tagged bromodomain proteins were purchased from BPS Bioscience and histone peptide from Genic Bio Synthetic.

Brdt(BD1) = molecular target: T2, Brdt(BD1) (Homo sapiens, UniProt Q58F21); assay: HTRF BET selectivity profile, Brdt(BD1); format: binding
T2 construct: GST tagged bromodomain proteins were purchased from BPS Bioscience; purchased BPS Bioscience
Protocol: (§4) HTRF assays were performed in white 384 Well Small Volume™ HiBase Polystyrene Microplates (Greiner) with a total working volume of 20 μL. Compounds were dispensed, with 100 nL per well (0.5% final DMSO), from a concentration stock of 10 mM in 100% DMSO and with serial DMSO dilutions, using an Echo® 550 robot from the Access Labcyte platform (Labcyte) and based on the transfer of liquid by acoustic wave. Then, 19.5 μL of buffer is added, using a Multidrop Combi (Thermo Fisher Scientific). Finally, for each assay, 200 nL of master mix (protein+donor+acceptor) and 200 nL of peptide Is added in the assay wells according to the final concentration and buffer described in Table 3, using the Echo® 550 robot (Labcyte). The IC50 measurements were performed in triplicates (Table 2 and 3). All HTRF reagents (donor and acceptor) were purchased from CisBio Bioassays and reconstituted according to the supplier protocols. The peptide was purchased from Genic Bio Synthetic. The BRD4(1) protein was produced and purified in the laboratory. HTRF signals were measured, after a final incubation (3 h or 6 h or overnight at room temperature or 4° C., according to the bromodomain), using a PHERAstar FS (BMG Labtech) with an excitation filter at 337 nm and fluorescence wavelength measurement at 620 and 665 nm, an integration delay of 60 μs and an integration time of 500 μs. Results were analyzed with a two-wavelengths signal ratio: [intensity (665 nm)/intensity (620 nm)]*104.
as §2, §3

Brd4(BD2) = molecular target: T3, Brd4(BD2) (Homo sapiens, UniProt O60885); assay: HTRF BET selectivity profile, Brd4(BD2); format: binding
T3 construct: GST tagged bromodomain proteins were purchased from BPS Bioscience; purchased BPS Bioscience
Protocol: as §4, §2, §3

Brd3(BD2) = molecular target: T4, Brd3(BD2) (Homo sapiens, UniProt Q15059); assay: HTRF BET selectivity profile, Brd3(BD2); format: binding
T4 construct: GST tagged bromodomain proteins were purchased from BPS Bioscience; purchased BPS Bioscience
T4 sequence (Q15059 306-415 limits assumed): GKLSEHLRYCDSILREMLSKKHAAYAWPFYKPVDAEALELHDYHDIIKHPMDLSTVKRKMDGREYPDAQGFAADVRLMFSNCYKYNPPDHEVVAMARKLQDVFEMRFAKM
Protocol: as §4, §2, §3

Brd2(BD2) = molecular target: T5, Brd2(BD2) (Homo sapiens, UniProt P25440); assay: HTRF BET selectivity profile, Brd2(BD2); format: binding; conditions: read-out: Brd2(BD2) IC50
T5 construct: GST tagged bromodomain proteins were purchased from BPS Bioscience; purchased BPS Bioscience
T5 sequence (P25440 344-453 limits assumed): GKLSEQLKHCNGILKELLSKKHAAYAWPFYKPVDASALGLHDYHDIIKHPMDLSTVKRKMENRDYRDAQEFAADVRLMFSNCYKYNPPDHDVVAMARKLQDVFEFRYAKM
Protocol: as §1, §2, §3

BRD4(BD1) [1] = molecular target: T6, BRD4(BD1) (Homo sapiens, UniProt O60885); assay: Isothermal Titration Calorimetry; format: binding; conditions: ITC; read-out: Binding affinity (Kd) to BRD4(1) by Isothermal Titration Calorimetry
Protocol: FIG. 1. Isothermal Titration Calorimetry (ITC) of 43c. Thermogram (top) and non-linear least squares fit model of the integrated data (bottom) at 15° C. of Brd4 (BD1) […] as a function of the molar ratio of ligand to the protein.
ITC was used to evaluate the thermodynamics parameters of the binding between BRD4 (BD1) and the selected compounds. Titrations were carried out on a MicroCal ITC200 microcalorimeter (GE Healthcare, Piscataway, N.J.). Each experiment was designed using a titrant concentration (protein in the syringe generally between 100 and 400 μM) set 10 to 15 times the analyte concentration (compound in the cell generally between 10 and 40 μM) and using 13 injections at 25° C. A first small injection (generally 0.2 μL) was included in the titration protocol in order to remove air bubbles trapped in the syringe prior titration. Raw data were scaled after setting the zero to the titration saturation heat value. Integrated raw ITC data were fitted to a one site non-linear least squares fit model using the MicroCal Origin plugin as implemented in Origin 7 (Origin Lab). Finally, ΔG and TΔS values were calculated from the fitted ΔH and KA values using the equations ΔG=−R.T.inKA and ΔG=ΔH−TΔS.

Jurkat cells = assay: Cell Titer-Glo cell viability assay, Jurkat; format: cell-based; conditions: Homo sapiens, 72 h, mean of three experiments, NA = IC50 > maximal concentration used
Protocol: The human leukemia cell line Jurkat (ATCC® TIB-152) and Molm14 was maintained in RPMI-1640 medium or MEMα, respectively and supplemented both with 10% FBS at 37° C. and 5% CO2.
In antiproliferative assays, compounds were assayed for their growth inhibiting activity towards the described cancer cell lines using the Cell Titer-Glo Luminescent Cell Viability Assay as described by the manufacturer (Promega Corporation). Briefly, 10.000 cells were plated onto 96 well-plates (white with clear bottom (3610, Corning Costar)) in 90 μL media per well immediately before assay. 10 μL of compounds were added at different concentrations (ranging from 50 μM to 6 nM) to each well and cell cultures were incubated 37° C. during 72 h. Vehicle (DMSO) was used as negative control, JQ1 (a pan-BET inhibitor) was used as positive control and all compounds were tested in constant percentage of DMSO (1%). After addition of 50 μL Cell Titer-GLO, shaking 2 minutes and incubating at room temperature 10 minutes, the Luminescence was measured using a Centro luminometer LB960 (Berthold). Dose-response curves were generated and effective dose 50 values (EC50) were calculated using non-linear regression analysis (Graph Pad Prism).

61 bromodomains = assay: Thermal shift assay selectivity profile on 61 bromodomains; format: binding; conditions: compound at 25 μM
Protocol: FIG. 3. Thermal Shift Assay (TSA) of 43c. The evaluation was performed on 61 bromodomains. A cut-off at +/−3.5° C. was set.
TSA “Bromoscan” assays (Reaction Biology) were performed in 384 well RT-PCR plate (BioRad) with a total working volume of 15 μL. The “BromoMelT™, containing the 61 GST- or His-tagged-bromodomains, SYPRO® Orange and a mix compounds as control, was purchased from Reaction Biology. For each point, 3 μL of protein (1×) and 12 μL master mix (buffer+SYPRO® Orange+compound at 25 μM or control mix compounds or DMSO (0.5%)) were mixed in plate. The plate was placed in a CFX384 RTQPC (BioRad), and heated 10 seconds at 25° C., then the temperature was increased from 25° C. to 90° C., by increment of 0.5° C. every 30 seconds. The fluorescence was recorded using FRET filters.

BRD4(BD1) [2] = molecular target: T6, BRD4(BD1); assay: HTRF assay, BRD4(BD1)/histone peptide interaction; format: binding; design: made in house; conditions: for IC50: HTRF
Brd3(BD1) = Brd3(BD1) (Homo sapiens, UniProt Q15059); assay: HTRF BET selectivity profile, Brd3(BD1); format: binding; design: GST tagged bromodomain proteins were purchased from BPS Bioscience; purchased BPS Bioscience
Chain of Brd3(BD1) (Q15059 34-140 limits assumed): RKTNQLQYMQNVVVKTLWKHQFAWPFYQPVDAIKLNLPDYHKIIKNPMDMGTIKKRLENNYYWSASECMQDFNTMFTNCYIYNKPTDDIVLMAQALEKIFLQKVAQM
Protocol: as §1, §2, §3

c-Myc = conditions: known inhibitors, background statement; cited from earlier work
[3] = tested on: BD2 domain of BRD2 and BRD3; conditions: cited from earlier work

In the case of `CCn1cnc2c1c(=O)[nH]c(=O)n2Cc1ccc(CNS(=O)(=O)c2ccc3c(c2)CCCC(=O)N3)cc1` [Compound 27c], the IC50 (Brd2(BD1); read-out: Brd2(BD1) IC50) is reported as 0.336 µM, the “Ratio 2-1 vs 2-2” value (Brd2(BD1); selectivity Brd2(BD1) vs Brd2(BD2), HTRF IC50) is reported as 5 and the IC50 (Brdt(BD1)) is reported as 0.356 µM. For the same molecule, the IC50 (Brd4(BD2)) was 2.78 µM, the IC50 (Brd3(BD2)) was 3.47 µM and the IC50 (Brd2(BD2)) was 1.61 µM. For the same molecule, the Kd (BRD4(BD1) [1]) was 0.129 µM, the IC50 (Jurkat cells) was 39.5 µM and the “Bromodomain selectivity profile by thermal shift assay” value (61 bromodomains) was “pan-BET selective”. The IC50 (BRD4(BD1) [2]; mean of three experiments, NA = IC50 > 50 μM, read-out: Brd4(8D1) IC50) was 0.283 µM, the IC50 (BRD4(BD1) [2]; read-out: IC50 on BRD4(BD1) activity (concentration that inhibits protein-protein interaction by 50%), triplicates, NA = IC50 > maximal concentration of compound used) was 0.283 µM and the “Ratio 4-1 vs 4-2” value (BRD4(BD1) [2]; selectivity Brd4(BD1) vs Brd4(BD2), HTRF IC50) was 10. For the same molecule, the IC50 (Brd3(BD1)) was 0.456 µM and the “Ratio 3-1 vs 3-2” value (Brd3(BD1); selectivity Brd3(BD1) vs Brd3(BD2), HTRF IC50) was 8.

In the case of `COc1cc2c(cc1-c1c(C)noc1C)ncc1[nH]c(=O)n([C@H](C)c3ccccn3)c12` [I-BET151], the “effect on c-Myc expression” value (c-Myc) is given as “strong downregulation of c-Myc”.

In the case of `COc1cc(OC)c2c(=O)[nH]c(-c3cc(C)c(OCCO)c(C)c3)nc2c1` [RVX-208, 2-[4-(2-hydroxyethoxy)-3,5-dimethylphenyl]-5,7-dimethoxy-4(3H)-quinazolinone], the “effect on c-Myc expression” value (c-Myc) is given as “no significant effect” and the bromodomain binding preference [3] is given as “binds preferentially to the BD2 domain of BRD2 and BRD3”.

In the case of `Cc1sc2c(c1C)C(c1ccc(Cl)cc1)=N[C@@H](CC(=O)OC(C)(C)C)c1nnc(C)n1-2` [JQ1], the “effect on c-Myc expression” value (c-Myc) is given as “strong downregulation of c-Myc”.
